Where two headings read alike, the source gives them in different places.
Experiments:
RMPCC's = conditions: In vitro Assay; ref Khetani 2012; cited from earlier work
[1] = ref Chen 2011; cited from earlier work
[2] = system: THLE or HepG2 cells, isolated mitochondria, BSEP; conditions: cited from earlier work
hLiMTs [3] = conditions: cited from earlier work
PHH spheroids = conditions: cited from earlier work
rBsep [4] = conditions: In vitro Assay; ref Dawson 2012; cited from earlier work
HepG2 = system: HepG2; parameters: method as in Albrecht 2019; conditions: In vitro Assay; ref Albrecht 2019; cited from earlier work
hu-MPCC = conditions: In vitro Assay; ref Khetani 2012; cited from earlier work
human hepatocytes = conditions: cited from earlier work; for Structural based (HCI): In vitro Assay, ref Xu 2008
HepG2 cells [5] = conditions: cited from earlier work; for Structural based (HCI): In vitro Assay, ref O'Brien 2006
PHH [6] = conditions: cited from earlier work
[7] = system: HepG2 cells, primary human hepatocytes; conditions: In vitro Assay; ref Garside 2014; cited from earlier work
HepaRG spheroids = assay: Combined HCI (HCS) and cellular ATP 3D assay in HepaRG spheroids
[8] = cited from earlier work
PHH [9] = conditions: In vitro Assay; ref Albrecht 2019; cited from earlier work
hLiMTs [10] = assay: Combined HCI (HCS) and cellular ATP 3D assay in hLiMTs
HepG2 cells [11] = conditions: cited from earlier work
[12] = cited from earlier work; remark: listed apart in the source
[13] = system: HepG2 C3A spheroid, BSEP, Glu/Gal in HepG2 cells, bioactivation; conditions: cited from earlier work
rBsep [14] = system: rBsep; parameters: method as in Dawson 2012; conditions: In vitro Assay; ref Dawson 2012; cited from earlier work
[15] = system: THLE-Null and THLE-3A4 cells; conditions: In vitro Assay; ref Gustafsson 2014; cited from earlier work
[16] = system: isolated mouse liver mitochondria; conditions: In vitro Assay; ref Porceddu 2012; cited from earlier work
[17] = Modeled in vitro assays (cytotoxicity, mitochondrial dysfunction, BSEP), ref Aleo et al. 2019
[18] = In vitro Assay, ref Proctor 2017
[19] = Microtissue model structural based (HCI), combined HCS and ATP, MEC < 25 × Cmax.tot cut-off
[20] = In vitro Assay, ref Persson 2013

O=C1CC2(CCCC2)CC(=O)N1CCCCN1CCN(c2ncccn2)CC1 [buspirone, reference compound]
RMPCC's (RMPCC's): -VE
DILI Score (FDA) (1-8) [1]: 3
Ro2 Hybrid HRM Score ([2]; In vitro Assay, ref Aleo 2019): -VE
Rule of Two hybrid HRM Score ≥3, Aleo (2019) [2, 17]: -VE
Rule of Two hybrid HRM Score ≥8, Aleo (2019) [2, 17]: -VE
hLiMTs ATP <100uM (hLiMTs [3]; [18]): -VE
hLiMTs/100uM, Proctor (2017) (hLiMTs [3]; hLiMTs, ATP, IC50 threshold 100 µM, ref Proctor et al. 2017): -VE
hLiMTs ATP <20 x Cmax (PHH spheroids; In vitro Assay, ref Vorrink 2018): -VE
DILI in vitro assay prediction, Vorrink (2018) (PHH spheroids; PHH spheroids, ATP, 14 days, IC20 < 20 × Cmax.tot, ref Vorrink et al. 2018): -VE
Inhibition of rBsep cutoff<1& cmax u>.2 (rBsep [4]): -VE
Inhibition of rBsep cutoff<3 (rBsep [4]): -VE
Cytotoxicity HepG2 48 hrs (HepG2): -VE
HMPCC's (hu-MPCC): -VE
Structural based (HCI) (human hepatocytes): -VE
DILI in vitro assay prediction, Xu (2008) (human hepatocytes; Structural based (HCI), human hepatocytes, ref Xu et al. 2008): -VE
Structural based (HCI) (HepG2 cells [5]): -VE
DILI in vitro assay prediction, O'Brien (2006) (HepG2 cells [5]; Structural based (HCI), HepG2, ref O'Brien et al. 2006): -VE
PHH/100uM, Proctor (2017) (PHH [6]; 2D PHH, ATP, IC50 threshold 100 µM, ref Proctor et al. 2017): -VE
PHH ATP <100uM (PHH [6]; [18]): -VE
Cluster 1-6 +VE Assay [7]: +VE
HepaRG <25x Avg Cmax ATP (HepaRG spheroids; HepaRG, ATP endpoint, cut-off <25x Avg Cmax): -ve
HepaRG <100x Avg Cmaxu ATP (HepaRG spheroids; HepaRG, ATP endpoint, cut-off <100x Avg Cmaxu): -ve
HepaRG <25x Avg Cmax HCS (HepaRG spheroids; HepaRG, HCS endpoints, cut-off <25x Avg Cmax): -ve
HepaRG <100x Avg Cmaxu HCS (HepaRG spheroids; HepaRG, HCS endpoints, cut-off <100x Avg Cmaxu): -ve
HepaRG <25x Avg Cmax All (HepaRG spheroids; HepaRG, all endpoints (ATP and HCS), cut-off <25x Avg Cmax): -ve
HepaRG Cmax max All (HepaRG spheroids; HepaRG, all endpoints, Cmax max used): -ve
HepaRG Cmax min All (HepaRG spheroids; HepaRG, all endpoints, Cmax min used): -ve
HepaRG <10 uM All (HepaRG spheroids; HepaRG, all endpoints, cut-off <10 uM): -ve
HepaRG <100x Avg Cmaxu All (HepaRG spheroids; HepaRG, all endpoints, cut-off <100x Avg Cmaxu): -ve
DILI prediction HepaRG spheroids (HCS-MEC) (HepaRG spheroids; [19]): -VE
DILI severity category (Chen et al. [2016]) ([8]; LTKB DILIrank category, ref Chen et al. 2016): Ambiguous
DILI severity category (Chen 2016) ([8]; human DILI classification, LTKB DILIrank, ref Chen et al. 2016): Ambiguous
DILI severity category ([8]; human DILI severity, ref Chen et al.): Ambiguous
DILI +VE (5-8), DILI -VE (-4) ([8]; ref Chen 2016): -VE
DILI severity category ([8]; ref Chen 2016): Ambiguous DILI-concern
Cytotoxicity PHH 48 hrs (PHH [9]): -VE
AC50 (hLiMTs [10]; Homo sapiens, read-out: ATP endpoint AC50): 5.15 µM
minimal effective concentration (hLiMTs [10]; Homo sapiens, read-out: ATP endpoint MEC): 3.12 µM
DILI prediction hLiMTs (HCS-MEC) (hLiMTs [10]; [19]): -VE
hLiMTs <25x Avg Cmax ATP (hLiMTs [10]; hLiMTs, ATP endpoint, cut-off <25x Avg Cmax): -ve
hLiMTs <100x Avg Cmaxu ATP (hLiMTs [10]; hLiMTs, ATP endpoint, cut-off <100x Avg Cmaxu): -ve
hLiMTs <25x Avg Cmax HCS (hLiMTs [10]; hLiMTs, HCS endpoints, cut-off <25x Avg Cmax): -ve
hLiMTs <100x Avg Cmaxu HCS (hLiMTs [10]; hLiMTs, HCS endpoints, cut-off <100x Avg Cmaxu): -ve
hLiMTs <25x Avg Cmax All (hLiMTs [10]; hLiMTs, all endpoints (ATP and HCS), cut-off <25x Avg Cmax): -ve
hLiMTs Cmax max All (hLiMTs [10]; hLiMTs, all endpoints, Cmax max used): -ve
hLiMTs Cmax min All (hLiMTs [10]; hLiMTs, all endpoints, Cmax min used): -ve
hLiMTs <10 uM All (hLiMTs [10]; hLiMTs, all endpoints, cut-off <10 uM): +ve (<10 uM)
hLiMTs <100x Avg Cmaxu All (hLiMTs [10]; hLiMTs, all endpoints, cut-off <100x Avg Cmaxu): -ve
Cluser analysis (HepG2 cells [11]; [20]): -VE
Structural based (HCI) (HepG2 cells [11]; [20]): -VE
DILI in vitro assay prediction, Persson (2013) (HepG2 cells [11]; Structural based (HCI), HepG2, ref Persson et al. 2013): -VE
Assigned DILI category ([12]; Chen et al. 2016 or literature alignment, ref Chen et al. 2016): 1
In vivo DILI ([12]; […]): -VE
In vivo DILI ([12]; ref Albrecht 2019): -VE
In vivo DILI ([12]; ref Dawson 2012): -VE
In vivo DILI ([12]; ref Garside 2014): -VE
In vivo DILI ([12]; ref Gustafsson 2014): -VE
In vivo DILI ([12]; ref Khetani 2012): -VE
In vivo DILI ([12]; ref O'Brien 2006): -VE
In vivo DILI ([12]; ref Persson 2013): -VE
In vivo DILI ([12]; ref Proctor 2017): -VE
In vivo DILI ([12]; ref Schadt 2015): -VE
In vivo DILI ([12]; ref Vorrink 2018): -VE
In vivo DILI ([12]; ref Williams 2019): -VE
In vivo DILI ([12]; ref Xu 2008): -VE
Bayesian Machine Learning DILI prediction, Williams (2019) ([13]; Bayesian modeling, ref Williams et al. 2019): -VE
Bayesian Machine Learning ([13]; In vitro Assay, ref Williams 2019): -VE

CCC(=O)O[C@]1(C(=O)CCl)[C@@H](C)C[C@H]2[C@@H]3CCC4=CC(=O)C=C[C@]4(C)[C@@]3(F)[C@@H](O)C[C@@]21C [clobetasol propionate]
Cluster 1-6 +VE Assay [7]: -VE
Inhibition of rBsep cutoff<1& cmax u>.2 (rBsep [14]): -VE
Inhibition of rBsep cutoff<3 (rBsep [14]): +VE
THLE-Null [15]: -VE
THLE-Null/3A4 [15]: -VE
In vivo DILI ([12]; ref Dawson 2012): -VE
In vivo DILI ([12]; ref Garside 2014): -VE
In vivo DILI ([12]; ref Gustafsson 2014): -VE

Cc1onc(-c2ccccc2Cl)c1C(=O)N[C@@H]1C(=O)N2[C@@H]1SC(C)(C)[C@@H]2C(=O)O [cloxacillin]
Inhibition of rBsep cutoff<1& cmax u>.2 (rBsep [14]): -VE
Inhibition of rBsep cutoff<3 (rBsep [14]): -VE

CC(C)(S)[C@@H](N)C(=O)O [d-penicillamine]
Inhibition of rBsep cutoff<1& cmax u>.2 (rBsep [14]): -VE
Inhibition of rBsep cutoff<3 (rBsep [14]): -VE
in vitro data EC2<=1x Cmax [16]: +VE
in vitro data EC20<=2uM [16]: -VE
THLE-Null [15]: -VE
THLE-Null/3A4 [15]: -VE
In vivo DILI ([12]; ref Dawson 2012): +VE
In vivo DILI ([12]; ref Gustafsson 2014): +VE
In vivo DILI ([12]; ref Porceddu 2012): +VE

CCC(=O)O[C@H]1[C@H](O[C@@H]2[C@@H](C)[C@H](O[C@H]3C[C@@](C)(OC)[C@@H](O)[C@H](C)O3)[C@@H](C)C(=O)O[C@H](CC)[C@@](C)(O)[C@H](O)[C@@H](C)C(=O)[C@H](C)C[C@@]2(C)O)O[C@H](C)C[C@@H]1N(C)C [erythromycin estolate]
Partition Hybrid HRM Score ([2]; In vitro Assay, ref Aleo 2019): +VE
Ro2 Hybrid HRM Score ([2]; In vitro Assay, ref Aleo 2019): +VE
Structural based (HCI) (human hepatocytes): +VE
Inhibition of rBsep cutoff<1& cmax u>.2 (rBsep [14]): +VE
Inhibition of rBsep cutoff<3 (rBsep [14]): +VE
In vivo DILI ([12]; ref Aleo 2019): +VE
In vivo DILI ([12]; ref Dawson 2012): +VE
In vivo DILI ([12]; ref Xu 2008): +VE

COc1ccc(Cl)cc1C(=O)NCCc1ccc(S(=O)(=O)NC(=O)NC2CCCCC2)cc1 [glibenclamide]
Cluster 1-6 +VE Assay [7]: +VE
Inhibition of rBsep cutoff<1& cmax u>.2 (rBsep [14]): +VE
Inhibition of rBsep cutoff<3 (rBsep [14]): +VE

COc1ccc(C(=O)NCc2cccnc2)cc1C(=O)NCc1cccnc1 [picotamide]
Structural based (HCI) (HepG2 cells [5]): +VE (lowest HCI endpoint IC50 (or in the absence of dose–response < 100 µM) < 30 × total human plasma exposure levels (Cmax.tot))
Inhibition of rBsep cutoff<1& cmax u>.2 (rBsep [14]): -VE
Inhibition of rBsep cutoff<3 (rBsep [14]): -VE
In vivo DILI ([12]; ref Dawson 2012): -VE
In vivo DILI ([12]; ref Gustafsson 2014): -VE
In vivo DILI ([12]; ref O'Brien 2006): -VE
